# Measured values published in publication PMC8286840, “Identifying SARS-CoV-2 antiviral compounds by screening for small molecule inhibitors of Nsp3 papain-like protease” (Biochemical Journal, 2021).
# Structures can show the parent of a compound that is named as a salt. Where two headings read alike, the source gives them in different places.
# Legend:
# [1] = target: T1, SARS-CoV-2 PLpro (nsp3 1564–1878) (Severe acute respiratory syndrome coronavirus 2, UniProt P0DTD1); test: biochemical; set-up: FRET-quenched peptide (Pro3) cleavage by PLpro, 10 min pre-incubation, slope over 20 min, normalised to no-compound control; details: high concentration screen, read-out: % of control remaining
# [2] = target: T1, SARS-CoV-2 PLpro (nsp3 1564–1878); test: biochemical; set-up: FRET-quenched peptide (Pro3) cleavage by PLpro, 10 min pre-incubation, slope over 20 min, normalised to no-compound control; details: low concentration screen, read-out: % of control remaining
smiles,measurement,setting,value
COc1cc2ncnc(N3CCN(C(=O)Nc4ccc(Oc5ccccc5)cc4)CC3)c2cc1OC [PDGF Receptor Tyrosine Kinase Inhibitor III],remaining activity at 3.75 µM,[1]; Well no.=2505,106%
same,remaining activity at 1.25 µM,[2]; Well no.=2505,104%
CCCC(=O)Oc1ccc2[nH]c(C(=O)c3cc4ccccc4[nH]3)cc2c1 [PDGF Receptor Tyrosine Kinase Inhibitor II],remaining activity at 3.75 µM,[1]; Well no.=2503,99.2%
same,remaining activity at 1.25 µM,[2]; Well no.=2503,101%
CCN(CC)Cc1ccc(C(=O)N(CCc2ccccc2OC)[C@@H]2CCNC2)cc1 [PF429242 (dihydrochloride)],remaining activity at 3.75 µM,[1]; Well no.=6996,97.5%
same,remaining activity at 1.25 µM,[2]; Well no.=6996,102%
CN(c1ccccc1CNc1nc(Nc2ccc3c(c2)CC(=O)N3)ncc1C(F)(F)F)S(C)(=O)=O [PF431396],remaining activity at 3.75 µM,[1]; Well no.=3033,100%
same,remaining activity at 1.25 µM,[2]; Well no.=3033,99.3%
OCCn1cc(-c2cnc3nnn(Cc4ccc5ncccc5c4)c3n2)cn1 [PF04217903],remaining activity at 3.75 µM,[1]; Well no.=2937,98.4%
same,remaining activity at 1.25 µM,[2]; Well no.=2937,99.1%
CC(C)C[C@H]1C(=O)O[C@H](Cc2ccccc2)C(=O)N(C)[C@@H](CC(C)C)C(=O)O[C@H](C)C(=O)N(C)[C@@H](CC(C)C)C(=O)O[C@H](Cc2ccccc2)C(=O)N(C)[C@@H](CC(C)C)C(=O)O[C@H](C)C(=O)N1C [PF 1022A],remaining activity at 3.75 µM,[1]; Well no.=7942,114%
same,remaining activity at 1.25 µM,[2]; Well no.=7942,101%
CS(=O)(=O)c1cccc(CNc2nc(Nc3ccc4c(c3)CCC(=O)N4)ncc2C(F)(F)F)c1 [PF 573228],remaining activity at 3.75 µM,[1]; Well no.=4712,101%
same,remaining activity at 1.25 µM,[2]; Well no.=4712,96.1%
O=C(Nc1cccnc1)N1CCC(Cc2cccc(Oc3ccc(C(F)(F)F)cn3)c2)CC1 [PF-3845],remaining activity at 3.75 µM,[1]; Well no.=4643,90.4%
same,remaining activity at 1.25 µM,[2]; Well no.=4643,96.6%
O=C(CCN1CCN(C(=O)OCc2cc(Cl)cc(Cl)c2)CC1)c1ccc2[nH]c(=O)oc2c1 [PF-8380],remaining activity at 3.75 µM,[1]; Well no.=7798,98.3%
same,remaining activity at 1.25 µM,[2]; Well no.=7798,104%
Cn1cc(-c2[nH]c3cc(NC(=O)[C@H](N)C4CCCCC4)cc4c3c2C=NNC4=O)cn1 [PF-477736],remaining activity at 3.75 µM,[1]; Well no.=4836,101%
same,remaining activity at 1.25 µM,[2]; Well no.=4836,99.5%
CC(F)(F)CN1CCOc2c(nn(-c3ccccc3Cl)c2-c2ccc(Cl)cc2)C1=O [PF-514273],remaining activity at 3.75 µM,[1]; Well no.=5700,96.2%
same,remaining activity at 1.25 µM,[2]; Well no.=5700,97.7%
CN(c1ncccc1CNc1nc(Nc2ccc3c(c2)CC(=O)N3)ncc1C(F)(F)F)S(C)(=O)=O [PF-562271],remaining activity at 3.75 µM,[1]; Well no.=2699,100%
same,remaining activity at 1.25 µM,[2]; Well no.=2699,97.1%
Cn1cc(-c2ccncc2)c(-c2ccc(OCc3ccc4ccccc4n3)cc2)n1 [PF-2545920],remaining activity at 3.75 µM,[1]; Well no.=8150,95.7%
same,remaining activity at 1.25 µM,[2]; Well no.=8150,101%
COCc1nnc(N2CC(Oc3ccc(F)cc3Cl)C2)n1-c1ccc(OC)nc1 [PF-3274167],remaining activity at 3.75 µM,[1]; Well no.=7285,97.3%
same,remaining activity at 1.25 µM,[2]; Well no.=7285,99.6%
Cc1cn2cc(C(=O)N(C)CCO)cc(N[C@@H]3CCOc4cccc(C)c43)c2n1 [PF-03716556],remaining activity at 3.75 µM,[1]; Well no.=6006,96%
same,remaining activity at 1.25 µM,[2]; Well no.=6006,97.5%
CC(=O)NCC(=O)N1[C@@H]2CC[C@H]1c1ccc(Nc3ncc(C(F)(F)F)c(NC4CCC4)n3)cc12 [PF-03814735],remaining activity at 3.75 µM,[1]; Well no.=4693,105%
same,remaining activity at 1.25 µM,[2]; Well no.=4693,102%
N#Cc1ccc(N2N=C3c4ccc(C(=O)O)cc4CC[C@@H]3[C@@H]2C2CCCC2)cc1Cl [PF-03882845],remaining activity at 3.75 µM,[1]; Well no.=6063,94.4%
same,remaining activity at 1.25 µM,[2]; Well no.=6063,96.4%
O=C(NCC(=O)N1CC[C@H](N[C@H]2CC[C@@](O)(c3ccc(-c4ncccn4)cn3)CC2)C1)c1cccc(C(F)(F)F)c1 [PF-4136309],remaining activity at 3.75 µM,[1]; Well no.=7097,98.1%
same,remaining activity at 3.75 µM,[1]; Well no.=8085,89%
same,remaining activity at 1.25 µM,[2]; Well no.=7097,98.3%
same,remaining activity at 1.25 µM,[2]; Well no.=8085,98%
COc1ccc2cc(OCC3(C(=O)O)CN(C(=O)c4ccc(F)cc4)C3)ccc2c1 [PF-04418948],remaining activity at 3.75 µM,[1]; Well no.=7197,87.9%
same,remaining activity at 1.25 µM,[2]; Well no.=7197,89.6%
CN1CC[C@@H](NC(=O)Nc2ccc(C#N)cc2)C[C@@H]1c1nc2ccccc2[nH]1 [PF-04449913 maleate salt],remaining activity at 3.75 µM,[1]; Well no.=5703,99.8%
same,remaining activity at 1.25 µM,[2]; Well no.=5703,104%
CC(C)CNCc1ccc(-c2ccccc2S(=O)(=O)N2CCCC2)cc1 [PF-04455242 hydrochloride],remaining activity at 3.75 µM,[1]; Well no.=5775,107%
same,remaining activity at 1.25 µM,[2]; Well no.=5775,106%
CCc1cncnc1N1CCN(Cc2nc3ccc(C(F)(F)F)cc3[nH]2)CC1 [PF-4708671],remaining activity at 3.75 µM,[1]; Well no.=4804,94.4%
same,remaining activity at 1.25 µM,[2]; Well no.=4804,97%
CC1(C)CC(=O)c2c(C(F)(F)F)nn(-c3ccc(C(N)=O)c(N[C@H]4CC[C@H](OC(=O)CN)CC4)c3)c2C1 [PF-04929113 (SNX-5422)],remaining activity at 3.75 µM,[1]; Well no.=4637,105%
same,remaining activity at 1.25 µM,[2]; Well no.=4637,101%
Cc1ccc(-c2c(-c3nn(C)c4ncnc(N5CC[C@H](N6CCCCC6)C5)c34)cnn2C)cc1 [PF-4981517],remaining activity at 3.75 µM,[1]; Well no.=4875,93.8%
same,remaining activity at 1.25 µM,[2]; Well no.=4875,99.5%
Cc1cnc(-c2cc(N3CCN(C(=O)CCS(C)(=O)=O)CC3)ncc2Cl)c(C)c1 [PF-5274857 hydrochloride],remaining activity at 3.75 µM,[1]; Well no.=5701,103%
same,remaining activity at 1.25 µM,[2]; Well no.=5701,102%
Cc1cnc(-c2cc(N3CCN(C(=O)CCS(C)(=O)=O)CC3)ncc2Cl)c(C)c1 [PF-5274857],remaining activity at 3.75 µM,[1]; Well no.=4739,102%
same,remaining activity at 1.25 µM,[2]; Well no.=4739,99.5%
O=C1CC(c2c[nH]c3ccc(F)cc23)C(=O)N1 (centres unmarked) [PF-06840003],remaining activity at 3.75 µM,[1]; Well no.=8215,101%
same,remaining activity at 1.25 µM,[2]; Well no.=8215,104%
COc1ccccc1S(=O)(=O)Nc1ccc2c(c1)CN(C)C(=O)N2 [PFI-1],remaining activity at 3.75 µM,[1]; Well no.=4844,88.7%
same,remaining activity at 1.25 µM,[2]; Well no.=4844,97%
CNC(=O)c1ccc(C)c(-n2c(C)cc(OCc3ccc(F)cc3F)c(Br)c2=O)c1 [PH-797804],remaining activity at 3.75 µM,[1]; Well no.=4695,104%
same,remaining activity at 1.25 µM,[2]; Well no.=4695,104%
"Cc1[nH]c(/C=C2\C(=O)Nc3ccc(S(=O)(=O)Cc4c(Cl)cccc4Cl)cc32)c(C)c1C(=O)N1CCC[C@@H]1CN1CCCC1 [PHA 665752 - (2R)-1-[[5-[(Z)-[5-[[(2,6-Dichlorophenyl)methyl]sulfonyl]-1,2-dihydro-2-oxo-3H-indol-3-ylidene]methyl]-2,4-dimethyl-1H-pyrrol-3-yl]carbonyl]-2-(1-pyrrolidinylmethyl)pyrrolidine]",remaining activity at 3.75 µM,[1]; Well no.=2590,98.3%
same,remaining activity at 1.25 µM,[2]; Well no.=2590,96.2%
CCc1cccc(CC)c1NC(=O)N1Cc2[nH]nc(NC(=O)c3ccc(N4CCN(C)CC4)cc3)c2C1 [PHA-680632],remaining activity at 3.75 µM,[1]; Well no.=4865,101%
same,remaining activity at 1.25 µM,[2]; Well no.=4865,97.9%
CC(C)CC(=O)Nc1n[nH]c2c1CN(C(=O)C1CCN(C)CC1)C2(C)C [PHA-793887],remaining activity at 3.75 µM,[1]; Well no.=4907,93.7%
same,remaining activity at 1.25 µM,[2]; Well no.=4907,94.3%
O=C(Nc1ccccc1)[C@@]12C[C@@H]1/C(=N\O)c1ccccc1O2 [PHCCC],remaining activity at 3.75 µM,[1]; Well no.=8571,105%
same,remaining activity at 1.25 µM,[2]; Well no.=8571,107%
